Reference: patent US9833497B2, “Human originated EGF domain proteins and use of the same” (CHENGDU SOURCEBIO LIMITED-LIABILITY COMPANY, priority 2013, dated 2017)

Legend:
Format in all cases: cell-based
Enterobacter cloacae = assay: MIC against Gram-negative bacteria: Enterobacter cloacae; conditions: for MIC E. cloacae / MIC against E. cloacae: 5×10^5 CFU/mL; for MIC E. cloacae: two-fold serial dilution
Method in brief: (§1)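 Bacteria grown in LB at 37° C with shaking to McFarland 0.5, pelleted and resuspended in fresh LB, then seeded at 5×10^5 CFU/mL per well. Purified recombinant human EGF domain proteins were two-fold serially diluted in triplicate and plates shaken at 37° C, 175 rpm. MIC is the lowest protein concentration with no bacterial growth.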

Proteus mirabilis = assay: MIC against Gram-negative bacteria: Proteus mirabilis; conditions: for MIC P. mirabilis / MIC against P. mirabilis: 5×10^5 CFU/mL; for MIC P. mirabilis: two-fold serial dilution
Method in brief: as §1

Serratia marcescens = assay: MIC against Gram-negative bacteria: Serratia marcescens; conditions: for MIC S. marcescens / MIC against S. marcescens: 5×10^5 CFU/mL; for MIC S. marcescens: two-fold serial dilution
Method in brief: as §1

Aeromonas hydrophila = assay: MIC against Gram-negative bacteria: Aeromonas hydrophila; conditions: for MIC A. hydrophila / MIC against A. hydrophila: 5×10^5 CFU/mL; for MIC A. hydrophila: two-fold serial dilution
Method in brief: as §1

Moraxella catarrhalis = assay: MIC against Gram-negative bacteria: Moraxella catarrhalis; conditions: for MIC M. catarrhalis / MIC against M. catarrhalis: 5×10^5 CFU/mL; for MIC M. catarrhalis: two-fold serial dilution
Method in brief: as §1

Klebsiella pneumonia = assay: MIC against Gram-negative bacteria: Klebsiella pneumonia; conditions: for MIC K. pneumonia / MIC against K. pneumonia: 5×10^5 CFU/mL; for MIC K. pneumonia: two-fold serial dilution
Method in brief: as §1

Proteus vulgaris = assay: MIC against Gram-negative bacteria: Proteus vulgaris; conditions: for MIC P. vulgaris / MIC against P. vulgaris: 5×10^5 CFU/mL; for MIC P. vulgaris: two-fold serial dilution
Method in brief: as §1

Citrobacter diversus = assay: MIC against Gram-negative bacteria: Citrobacter diversus; conditions: for MIC C. diversus / MIC against C. diversus: 5×10^5 CFU/mL; for MIC C. diversus: two-fold serial dilution
Method in brief: as §1

E. coli DH5α = assay: Antibacterial activity: MIC and growth curve against E. coli DH5α in 96-well plate; conditions: minimal inhibitory concentration against E. coli DH5α; 96-well plate, 5×10^5 CFU/mL, 37° C., judged after 8 h
Method in brief: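 MIC taken as lowest protein level with no bacterial growth, tracked by A600 every 30 min during 37 °C, 175 rpm culture. Two-fold protein series 50-12.5 μg/mL final, triplicate wells, against 5×10^5 CFU/mL of LB-washed mid-log cells.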

E. coli BL21 = assay: MIC against Gram-negative bacteria: E. coli BL21; conditions: for MIC E. coli BL21 / MIC against E. coli BL21: 5×10^5 CFU/mL; for MIC E. coli BL21: two-fold serial dilution
Method in brief: as §1

Pseudomonas aeruginosa = assay: MIC against Gram-negative bacteria: Pseudomonas aeruginosa; conditions: for MIC P. aeruginosa / MIC against P. aeruginosa: 5×10^5 CFU/mL; for MIC P. aeruginosa: two-fold serial dilution
Method in brief: as §1

[1] = E. coli BL21, 10 h cultivation at 37° C.

Substance: PRT1171 (NTNDCSPHPCYNSGTCVDGDNWYRCECAPGFAGPDCR; listed as Homo sapiens)
- MIC E. cloacae (Enterobacter cloacae; 10 h cultivation at 37° C.): 12.5 µg/mL
- MIC P. mirabilis (Proteus mirabilis; 10 h cultivation at 37° C.): 12.5 µg/mL
- MIC S. marcescens (Serratia marcescens; 10 h cultivation at 37° C.): 25 µg/mL
- MIC A. hydrophila (Aeromonas hydrophila; 10 h cultivation at 37° C.): 12.5 µg/mL
- MIC M. catarrhalis (Moraxella catarrhalis; 10 h cultivation at 37° C.): 50 µg/mL
- MIC K. pneumonia (Klebsiella pneumonia; 10 h cultivation at 37° C.): 12.5 µg/mL
- MIC P. vulgaris (Proteus vulgaris; 10 h cultivation at 37° C.): 50 µg/mL
- MIC C. diversus (Citrobacter diversus; 10 h cultivation at 37° C.): 12.5 µg/mL
- MIC (E. coli DH5α): 12.5 µg/mL
- MIC E. coli BL21 (E. coli BL21; 10 h cultivation at 37° C.): 12.5 µg/mL
- MIC P. aeruginosa (Pseudomonas aeruginosa; 10 h cultivation at 37° C.): 25 µg/mL

Substance: PRT997 (EVDECLSDPCPVGASCLDLPGAFFCLCPSGFTGQLCE; listed as Homo sapiens)
- MIC (Enterobacter cloacae; E. cloacae, 10 h cultivation at 37° C.): 50 µg/mL
- MIC (Proteus mirabilis; P. mirabilis, 10 h cultivation at 37° C.): 25 µg/mL
- MIC (Serratia marcescens; S. marcescens, 10 h cultivation at 37° C.): 25 µg/mL
- MIC (Aeromonas hydrophila; A. hydrophila, 10 h cultivation at 37° C.): 12.5 µg/mL
- MIC (Moraxella catarrhalis; M. catarrhalis, 10 h cultivation at 37° C.): 12.5 µg/mL
- MIC (Klebsiella pneumonia; K. pneumonia, 10 h cultivation at 37° C.): 12.5 µg/mL
- MIC (Proteus vulgaris; P. vulgaris, 10 h cultivation at 37° C.): 50 µg/mL
- MIC (Citrobacter diversus; C. diversus, 10 h cultivation at 37° C.): 50 µg/mL
- MIC (E. coli DH5α): 12.5 µg/mL
- MIC (E. coli BL21; [1]): 12.5 µg/mL
- MIC (Pseudomonas aeruginosa; P. aeruginosa, 10 h cultivation at 37° C.): 12.5 µg/mL

Substance: PRT1064 (INECLSRKLSGCSQDCEDLKIGFKCRCRPGFRLKDDGRTCA; listed as Homo sapiens)
- MIC E. cloacae (Enterobacter cloacae; 10 h cultivation at 37° C.): 50 µg/mL
- MIC P. mirabilis (Proteus mirabilis; 10 h cultivation at 37° C.): 50 µg/mL
- MIC S. marcescens (Serratia marcescens; 10 h cultivation at 37° C.): 12.5 µg/mL
- MIC A. hydrophila (Aeromonas hydrophila; 10 h cultivation at 37° C.): 25 µg/mL
- MIC M. catarrhalis (Moraxella catarrhalis; 10 h cultivation at 37° C.): 25 µg/mL
- MIC K. pneumonia (Klebsiella pneumonia; 10 h cultivation at 37° C.): 12.5 µg/mL
- MIC P. vulgaris (Proteus vulgaris; 10 h cultivation at 37° C.): 25 µg/mL
- MIC C. diversus (Citrobacter diversus; 10 h cultivation at 37° C.): 12.5 µg/mL
- MIC (E. coli DH5α): 25 µg/mL
- MIC E. coli BL21 (E. coli BL21; 10 h cultivation at 37° C.): 50 µg/mL
- MIC P. aeruginosa (Pseudomonas aeruginosa; 10 h cultivation at 37° C.): 25 µg/mL

Substance: PRT1127 (KDGPCVINGSPCQHGGTCVDDEGRASHASCLCPPGFSGNFCE; listed as Homo sapiens)
- MIC E. cloacae (Enterobacter cloacae; 10 h cultivation at 37° C.): 12.5 µg/mL
- MIC P. mirabilis (Proteus mirabilis; 10 h cultivation at 37° C.): 25 µg/mL
- MIC S. marcescens (Serratia marcescens; 10 h cultivation at 37° C.): 25 µg/mL
- MIC A. hydrophila (Aeromonas hydrophila; 10 h cultivation at 37° C.): 50 µg/mL
- MIC M. catarrhalis (Moraxella catarrhalis; 10 h cultivation at 37° C.): 12.5 µg/mL
- MIC K. pneumonia (Klebsiella pneumonia; 10 h cultivation at 37° C.): 50 µg/mL
- MIC P. vulgaris (Proteus vulgaris; 10 h cultivation at 37° C.): 50 µg/mL
- MIC C. diversus (Citrobacter diversus; 10 h cultivation at 37° C.): 25 µg/mL
- MIC (E. coli DH5α): 12.5 µg/mL
- MIC E. coli BL21 (E. coli BL21; 10 h cultivation at 37° C.): 50 µg/mL
- MIC P. aeruginosa (Pseudomonas aeruginosa; 10 h cultivation at 37° C.): 12.5 µg/mL

Substance: PRT531 (CDCNLEGVLPEICDAHGRCLCRPGVEGPRCDTCRSGFYSFPICQA; listed as Homo sapiens)
- MIC against E. cloacae (Enterobacter cloacae; 96-well plate, 37° C., 10 h): 50 µg/mL
- MIC against P. mirabilis (Proteus mirabilis; 96-well plate, 37° C., 10 h): 50 µg/mL
- MIC against S. marcescens (Serratia marcescens; 96-well plate, 37° C., 10 h): 50 µg/mL
- MIC against A. hydrophila (Aeromonas hydrophila; 96-well plate, 37° C., 10 h): 12.5 µg/mL
- MIC against M. catarrhalis (Moraxella catarrhalis; 96-well plate, 37° C., 10 h): 12.5 µg/mL
- MIC against K. pneumonia (Klebsiella pneumonia; 96-well plate, 37° C., 10 h): 25 µg/mL
- MIC against P. vulgaris (Proteus vulgaris; 96-well plate, 37° C., 10 h): 12.5 µg/mL
- MIC against C. diversus (Citrobacter diversus; 96-well plate, 37° C., 10 h): 50 µg/mL
- MIC (E. coli DH5α): 50 µg/mL
- MIC against E. coli BL21 (E. coli BL21; 96-well plate, 37° C., 10 h): 25 µg/mL
- MIC against P. aeruginosa (Pseudomonas aeruginosa; 96-well plate, 37° C., 10 h): 12.5 µg/mL

Substance: PRT567 (CTCDPAGSQNEGICDSYTDFSTGLIAGQCRCKLNVEGEHCDVCKEGFYDLSSEDPFGCKS; listed as Homo sapiens)
- MIC against E. cloacae (Enterobacter cloacae; 96-well plate, 37° C., 10 h): 50 µg/mL
- MIC against P. mirabilis (Proteus mirabilis; 96-well plate, 37° C., 10 h): 12.5 µg/mL
- MIC against S. marcescens (Serratia marcescens; 96-well plate, 37° C., 10 h): 12.5 µg/mL
- MIC against A. hydrophila (Aeromonas hydrophila; 96-well plate, 37° C., 10 h): 25 µg/mL
- MIC against M. catarrhalis (Moraxella catarrhalis; 96-well plate, 37° C., 10 h): 50 µg/mL
- MIC against K. pneumonia (Klebsiella pneumonia; 96-well plate, 37° C., 10 h): 25 µg/mL
- MIC against P. vulgaris (Proteus vulgaris; 96-well plate, 37° C., 10 h): 12.5 µg/mL
- MIC against C. diversus (Citrobacter diversus; 96-well plate, 37° C., 10 h): 12.5 µg/mL
- MIC (E. coli DH5α): 50 µg/mL
- MIC against E. coli BL21 (E. coli BL21; 96-well plate, 37° C., 10 h): 25 µg/mL
- MIC against P. aeruginosa (Pseudomonas aeruginosa; 96-well plate, 37° C., 10 h): 12.5 µg/mL

Substance: PRT1485 (DVNECRRPLERRVCHHSCHNTVGSFLCTCRPGFRLRADRVSCE; listed as Homo sapiens)
- MIC against E. cloacae (Enterobacter cloacae; Enterobacter cloacae, 10 h cultivation at 37° C.): 12.5 µg/mL
- MIC against P. mirabilis (Proteus mirabilis; Proteus mirabilis, 10 h cultivation at 37° C.): 12.5 µg/mL
- MIC against S. marcescens (Serratia marcescens; Serratia marcescens, 10 h cultivation at 37° C.): 12.5 µg/mL
- MIC against A. hydrophila (Aeromonas hydrophila; Aeromonas hydrophila, 10 h cultivation at 37° C.): 50 µg/mL
- MIC against M. catarrhalis (Moraxella catarrhalis; Moraxella catarrhalis, 10 h cultivation at 37° C.): 50 µg/mL
- MIC against K. pneumonia (Klebsiella pneumonia; Klebsiella pneumonia, 10 h cultivation at 37° C.): 12.5 µg/mL
- MIC against P. vulgaris (Proteus vulgaris; Proteus vulgaris, 10 h cultivation at 37° C.): 12.5 µg/mL
- MIC against C. diversus (Citrobacter diversus; Citrobacter diversus, 10 h cultivation at 37° C.): 12.5 µg/mL
- MIC (E. coli DH5α): 12.5 µg/mL
- MIC against E. coli BL21 (E. coli BL21; [1]): 50 µg/mL
- MIC against P. aeruginosa (Pseudomonas aeruginosa; Pseudomonas aeruginosa, 10 h cultivation at 37° C.): 12.5 µg/mL
